{"source": "patent EP1964550A1", "about": "“Glucocorticoid-nitrooxyderivative compositions” (NicOx S.A., priority 2007, dated 2008)", "origin": "cited, not measured here", "test_system": "irritant acute dermatitis", "conditions": "oedema formation and recruitment of leukocytes evaluated; compared with parent compound hydrocortisone"}
{"smiles": "C[C@]12CCC(=O)C=C1CC[C@@H]1[C@@H]2[C@@H](O)C[C@@]2(C)[C@H]1CC[C@]2(O)C(=O)COC(=O)c1ccc(CO[N+](=O)[O-])cc1", "note": "[hydrocortisone 21-[4'-(nitrooxymethyl)benzoate]]", "values": [{"measurement": "anti-inflammatory activity", "value": "higher anti-inflammatory activity than the parent compound hydrocortisone"}]}
